From ChEMBL document CHEMBL3885881, “DrugMatrix”

Species: Rattus norvegicus
Experiment: DrugMatrix - Regimen: Daily Repeat
Assay type: toxicity, organism-based, Sprague-Dawley
Parameters: regimen Daily Repeat, gender Male, age 6-8 weeks
Conditions: in vivo, po, route oral GAVAGE, […]; for ABSOLUTE BASOPHIL / ABSOLUTE EOSINOPHIL / ABSOLUTE LYMPHOCYTE / ABSOLUTE MONOCYTE / ABSOLUTE SEGMENTED NEUTROPHIL / BASOPHIL / EOSINOPHIL / ERYTHROCYTE COUNT / HEMATOCRIT / HEMOGLOBIN / LEUKOCYTE COUNT / LYMPHOCYTE / MEAN CORPUSCULAR HEMOGLOBIN / MEAN CORPUSCULAR HEMOGLOBIN CONCENTRATION / MEAN CORPUSCULAR VOLUME / MONOCYTE / NEUTROPHIL / NUCLEATED RED BLOOD CELLS / PLATELET COUNT: tissue Blood; for ALANINE AMINOTRANSFERASE / ALBUMIN / ALKALINE PHOSPHATASE / ASPARTATE AMINOTRANSFERASE / BLOOD UREA NITROGEN / CARBON DIOXIDE / CHLORIDE / CHOLESTEROL / CREATINE PHOSPHOKINASE / CREATININE / GLUCOSE / LACTATE DEHYDROGENASE / LIPASE / PHOSPHORUS / POTASSIUM / SODIUM / TOTAL BILIRUBIN / TOTAL PROTEIN / URIC ACID: tissue Plasma
[1] = 0 mg/kg, 72 h, dose level Control, time 3 day
[2] = 0 mg/kg, 120 h, dose level Control, time 5 day
[3] = 50 mg/kg, 72 h, dose level Low, time 3 day

`Oc1ncnc2[nH]ncc12` [ALLOPURINOL] was tested, and the “ABSOLUTE BASOPHIL” value [1] was 0 CELLS/uL, the “ABSOLUTE EOSINOPHIL” value [1] was 0 CELLS/uL and the “ABSOLUTE LYMPHOCYTE” value [1] was 14687.67 CELLS/uL. For the same compound, the “ABSOLUTE MONOCYTE” value [1] was 164 CELLS/uL, the “ABSOLUTE SEGMENTED NEUTROPHIL” value [1] was 1748.33 CELLS/uL and the BASOPHIL [1] was 0%. For the same compound, the EOSINOPHIL [1] was 0%, the “ERYTHROCYTE COUNT” value [1] was 5.51 x10E6/uL and the HEMATOCRIT [1] was 33.68%. For the same compound, the HEMOGLOBIN [1] was 13.4 G/DL, the “LEUKOCYTE COUNT” value [1] was 16.6 x10E3/uL and the LYMPHOCYTE [1] was 88.83%. The “MEAN CORPUSCULAR HEMOGLOBIN” value [1] was 24.47 pg, the “MEAN CORPUSCULAR HEMOGLOBIN CONCENTRATION” value [1] was 39.82 G/DL and the “MEAN CORPUSCULAR VOLUME” value [1] was 61.23 fL. The MONOCYTE [1] was 0.83%, the NEUTROPHIL [1] was 10.33% and the “NUCLEATED RED BLOOD CELLS” value [1] was 0 /100WBC. The “PLATELET COUNT” value [1] was 1329.67 x10E3/uL, the “ALANINE AMINOTRANSFERASE” value [1] was 61.33 u/L and the ALBUMIN [1] was 4.18 G/DL. For the same compound, the “ALKALINE PHOSPHATASE” value [1] was 332.5 u/L, the “ASPARTATE AMINOTRANSFERASE” value [1] was 98.33 u/L and the “BLOOD UREA NITROGEN” value [1] was 15.83 mg/dL. The “CARBON DIOXIDE” value [1] was 27.83 mmol/L, the CHLORIDE [1] was 100 MEQ/L and the CHOLESTEROL [1] was 76.17 mg/dL. The “CREATINE PHOSPHOKINASE” value [1] was 729.17 u/L, the CREATININE [1] was 0.21 mg/dL and the GLUCOSE [1] was 151.83 mg/dL. The “LACTATE DEHYDROGENASE” value [1] was 484.67 u/L, the LIPASE [1] was 10 u/L and the PHOSPHORUS [1] was 11.3 mg/dL. For the same compound, the POTASSIUM [1] was 6.1 MEQ/L, the SODIUM [1] was 142.9 MEQ/L and the “TOTAL BILIRUBIN” value [1] was 0.23 mg/dL. The “TOTAL PROTEIN” value [1] was 5.68 G/DL, the “URIC ACID” value [1] was 1.75 mg/dL and the “ABSOLUTE BASOPHIL” value [2] was 0 CELLS/uL. For the same compound, the “ABSOLUTE EOSINOPHIL” value [2] was 58.67 CELLS/uL, the “ABSOLUTE LYMPHOCYTE” value [2] was 15950.83 CELLS/uL and the “ABSOLUTE MONOCYTE” value [2] was 172.5 CELLS/uL. For the same compound, the “ABSOLUTE SEGMENTED NEUTROPHIL” value [2] was 2551.33 CELLS/uL, the BASOPHIL [2] was 0% and the EOSINOPHIL [2] was 0.33%. The “ERYTHROCYTE COUNT” value [2] was 5.5 x10E6/uL, the HEMATOCRIT [2] was 34.05% and the HEMOGLOBIN [2] was 13.42 G/DL. The “LEUKOCYTE COUNT” value [2] was 18.73 x10E3/uL, the LYMPHOCYTE [2] was 84.5% and the “MEAN CORPUSCULAR HEMOGLOBIN” value [2] was 24.42 pg. The “MEAN CORPUSCULAR HEMOGLOBIN CONCENTRATION” value [2] was 39.42 G/DL, the “MEAN CORPUSCULAR VOLUME” value [2] was 61.97 fL and the MONOCYTE [2] was 1%. The NEUTROPHIL [2] was 14.17%, the “NUCLEATED RED BLOOD CELLS” value [2] was 0.33 /100WBC and the “PLATELET COUNT” value [2] was 1143.17 x10E3/uL. For the same compound, the “ALANINE AMINOTRANSFERASE” value [2] was 57 u/L, the ALBUMIN [2] was 4.17 G/DL and the “ALKALINE PHOSPHATASE” value [2] was 347.33 u/L. The “ASPARTATE AMINOTRANSFERASE” value [2] was 93.67 u/L, the “BLOOD UREA NITROGEN” value [2] was 15.67 mg/dL and the “CARBON DIOXIDE” value [2] was 27.17 mmol/L. For the same compound, the CHLORIDE [2] was 104.33 MEQ/L, the CHOLESTEROL [2] was 69.5 mg/dL and the “CREATINE PHOSPHOKINASE” value [2] was 317.17 u/L. The CREATININE [2] was 0.2 mg/dL, the GLUCOSE [2] was 162.33 mg/dL and the “LACTATE DEHYDROGENASE” value [2] was 408.67 u/L. The LIPASE [2] was 10.17 u/L, the PHOSPHORUS [2] was 11.08 mg/dL and the POTASSIUM [2] was 6.36 MEQ/L. The SODIUM [2] was 146.07 MEQ/L, the “TOTAL BILIRUBIN” value [2] was 0.22 mg/dL and the “TOTAL PROTEIN” value [2] was 5.92 G/DL. For the same compound, the “URIC ACID” value [2] was 1.47 mg/dL, the “ABSOLUTE BASOPHIL” value [3] was 0 CELLS/uL and the “ABSOLUTE EOSINOPHIL” value [3] was 127 CELLS/uL. The “ABSOLUTE LYMPHOCYTE” value [3] was 14701 CELLS/uL, the “ABSOLUTE MONOCYTE” value [3] was 340.67 CELLS/uL and the “ABSOLUTE SEGMENTED NEUTROPHIL” value [3] was 1864.67 CELLS/uL. The BASOPHIL [3] was 0%, the EOSINOPHIL [3] was 1% and the “ERYTHROCYTE COUNT” value [3] was 5.8 x10E6/uL. The HEMATOCRIT [3] was 35.57%, the HEMOGLOBIN [3] was 14.13 G/DL and the “LEUKOCYTE COUNT” value [3] was 17.03 x10E3/uL. For the same compound, the LYMPHOCYTE [3] was 86.33%, the “MEAN CORPUSCULAR HEMOGLOBIN” value [3] was 24.4 pg and the “MEAN CORPUSCULAR HEMOGLOBIN CONCENTRATION” value [3] was 39.77 G/DL. The “MEAN CORPUSCULAR VOLUME” value [3] was 61.43 fL, the MONOCYTE [3] was 2% and the NEUTROPHIL [3] was 10.67%. The “NUCLEATED RED BLOOD CELLS” value [3] was 0 /100WBC, the “PLATELET COUNT” value [3] was 1335 x10E3/uL and the “ALANINE AMINOTRANSFERASE” value [3] was 47.67 u/L. The ALBUMIN [3] was 3.9 G/DL, the “ALKALINE PHOSPHATASE” value [3] was 391.33 u/L and the “ASPARTATE AMINOTRANSFERASE” value [3] was 101 u/L. For the same compound, the “BLOOD UREA NITROGEN” value [3] was 54.33 mg/dL, the “CARBON DIOXIDE” value [3] was 31.33 mmol/L and the CHLORIDE [3] was 101.67 MEQ/L. For the same compound, the CHOLESTEROL [3] was 88.33 mg/dL, the “CREATINE PHOSPHOKINASE” value [3] was 732.33 u/L and the CREATININE [3] was 1.13 mg/dL. For the same compound, the GLUCOSE [3] was 142 mg/dL, the “LACTATE DEHYDROGENASE” value [3] was 354.67 u/L and the LIPASE [3] was 10 u/L. For the same compound, the PHOSPHORUS [3] was 10.1 mg/dL, the POTASSIUM [3] was 6.99 MEQ/L and the SODIUM [3] was 146.8 MEQ/L. The “TOTAL BILIRUBIN” value [3] was 0.2 mg/dL, the “TOTAL PROTEIN” value [3] was 5.93 G/DL and the “URIC ACID” value [3] was 0.2 mg/dL.
